pEC50: −log10 of the molar value. Like-named read-outs stand apart in the source and are kept apart here.
Legend:
[1] = system: HCV genotype 1a (H77 strain) replicon in HUH-7 cells; assay: HCV replicon luciferase reporter assay, genotype 1a; assay type: cell-based; details: Hepatitis C virus, Huh-7, 72 h, 3 days incubation, read-out: LE_1a (EC50, range)
How it was run: (§1)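 Replicon inhibition for both genotypes was measured as Renilla luciferase signal (EnduRen, 7.5 μM final, 2 h) after 3-day, 37° C exposure of replicon-bearing HUH-7 cells in 4% FCS DMEM, 0.5% DMSO. The 1b construct carries S1179I; the 1a H77 construct carries P1496L and S2204I. Twenty-point, 3-fold dilutions were fitted four-parametrically for EC50, and CC50 was taken from multiplexed Cell Titer-Blue.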

[2] = system: HCV genotype 1b (Con1) replicon in HUH-7 cells; assay: HCV replicon luciferase reporter assay, genotype 1b; assay type: cell-based; details: Hepatitis C virus, Huh-7, 72 h, 3 days incubation, read-out: LE_1b (EC50, range)
How it was run: as §1

[3] = HCV genotype 1a replicon luciferase assay, range class
[4] = HCV genotype 1b replicon luciferase assay, range class
[5] = HCV genotype 1a replicon luciferase
[6] = HCV genotype 1b replicon luciferase

SMILES	pEC50 [1, 5]	pEC50 [2, 6]	further results
CCCOc1cc2c(Cl)cccc2c(O[C@@H]2C[C@H]3C(=O)N[C@]4(C(=O)NS(=O)(=O)C5CC5)C[C@H]4/C=C\CC[C@H](C)C[C@@H](C)[C@H](NC(=O)OC4C[C@@H]5C[C@H]5C4)C(=O)N3C2)n1 [Compound 1085, (1S,5S)-bicyclo[3.1.0]hexan-3-yl((2R,6S,7R,9S,13aS,14aR,16aS,Z)-2-((5-chloro-3-propoxyisoquinolin-1-yl)oxy)-14a-((cyclopropylsulfonyl)carbamoyl)-7,9-dimethyl-5,16-dioxo-1,2,3,5,6,7,8,9,10,11,13a,14,14a,15,16,16a-hexadecahydrocyclopropa[e]pyrrolo[1,2-a][1,4]diazacyclopentadecin-6-yl)carbamate]	–	–	pEC50 [1, 3]: > 8.26; pEC50 [2, 4]: > 8.26
CC[C@@H]1C[C@@H](C)CC/C=C\[C@@H]2C[C@@]2(C(=O)NS(=O)(=O)C2(C)CC2)NC(=O)[C@@H]2C[C@@H](Oc3nccc4cc(OC)c(F)cc34)CN2C(=O)[C@H]1NC(=O)OC(C)(C)C(C)(F)F [Compound 5434, 3,3-difluoro-2-methylbutan-2-yl((2R,6S,7R,9S,13aS,14aR,16aS,Z)-7-ethyl-2-((7-fluoro-6-methoxyisoquinolin-1-yl)oxy)-9-methyl-14a-(((1-methylcyclopropyl)sulfonyl)carbamoyl)-5,16-dioxo-1,2,3,5,6,7,8,9,10,11,13a,14,14a,15,16,16a-hexadecahydrocyclopropa[e]pyrrolo[1,2-a][1,4]diazacyclopentadecin-6-yl)carbamate]	8.30 to 9.00	8.30 to 9.00	–
COc1cnc(O[C@@H]2C[C@H]3C(=O)N[C@]4(C(=O)NS(=O)(=O)C5(CF)CC5)C[C@H]4CCCC[C@@H](C)C[C@@H](C)[C@H](NC(=O)OC(C)(C)C(F)(F)F)C(=O)N3C2)c2ccccc12 [Compound 5117, 1,1,1-trifluoro-2-methylpropan-2-yl((2R,6S,7R,9R,13aR,14aR,16aS)-14a-(((1-(fluoromethyl)cyclopropyl)sulfonyl)carbamoyl)-2-((4-methoxyisoquinolin-1-yl)oxy)-7,9-dimethyl-5,16-dioxooctadecahydrocyclopropa[e]pyrrolo[1,2-a][1,4]diazacyclopentadecin-6-yl)carbamate]	> 8.26	> 8.26	–
CCOc1nnc(O[C@@H]2C[C@H]3C(=O)N[C@]4(C(=O)NS(=O)(=O)C5CC5)C[C@H]4/C=C\CC[C@H](C)C[C@@H](C)[C@H](NC(=O)OC(C)(C)C)C(=O)N3C2)c2ccccc12 [Compound 5034, tert-butyl ((2R,6S,7R,9S,13aS,14aR,16aS,Z)-14a-((cyclopropylsulfonyl)carbamoyl)-2-((4-ethoxyphthalazin-1-yl)oxy)-7,9-dimethyl-5,16-dioxo-1,2,3,5,6,7,8,9,10,11,13a,14,14a,15,16,16a-hexadecahydrocyclopropa[e]pyrrolo[1,2-a][1,4]diazacyclopentadecin-6-yl)carbamate]	6.99 to 8.32	6.99 to 8.32	–
COc1cc(F)cc2c(O[C@@H]3C[C@H]4C(=O)N[C@]5(C(=O)NS(=O)(=O)C6CC6)C[C@H]5/C=C\CC[C@@H](C)C[C@@H](C)[C@H](NC(=O)O[C@@H]5C[C@@H]6C[C@@H]6C5)C(=O)N4C3)nccc12 [Compound 3168, (1R,3r,5S)-bicyclo[3.1.0]hexan-3-yl((2R,6S,7R,9R,13aS,14aR,16aS,Z)-14a-((cyclopropylsulfonyl)carbamoyl)-2-((7-fluoro-5-methoxyisoquinolin-1-yl)oxy)-7,9-dimethyl-5,16-dioxo-1,2,3,5,6,7,8,9,10,11,13a,14,14a,15,16,16a-hexadecahydrocyclopropa[e]pyrrolo[1,2-a][1,4]diazacyclopentadecin-6-yl)carbamate]	–	–	pEC50 [1, 3]: > 8.26; pEC50 [2, 4]: > 8.26
CC[C@@H]1C[C@H](C)CC/C=C\[C@@H]2C[C@@]2(C(=O)NS(=O)(=O)C2CC2)NC(=O)[C@@H]2C[C@@H](Oc3nc4cc(OC)ccc4nc3Cl)CN2C(=O)[C@H]1NC(=O)OC(C)(C)C [Compound 4270, tert-butyl ((2R,6S,7R,9R,13aS,14aR,16aS,Z)-2-((3-chloro-7-methoxyquinoxalin-2-yl)oxy)-14a-((cyclopropylsulfonyl)carbamoyl)-7-ethyl-9-methyl-5,16-dioxo-1,2,3,5,6,7,8,9,10,11,13a,14,14a,15,16,16a-hexadecahydrocyclopropa[e]pyrrolo[1,2-a][1,4]diazacyclopentadecin-6-yl)carbamate]	8.30 to 9.00	9.30 to 10.00	–
COc1ccc(-c2nc(O[C@@H]3C[C@H]4C(=O)N[C@]5(C(=O)NS(=O)(=O)C6CC6)C[C@H]5/C=C\CC[C@@H](C)C[C@@H](C)[C@H](NC(=O)OC(C)(C)C)C(=O)N4C3)c3ccc(OC)cc3n2)cc1 [Compound 5002, tert-butyl ((2R,6S,7R,9R,13aS,14aR,16aS,Z)-14a-((cyclopropylsulfonyl)carbamoyl)-2-((7-methoxy-2-(4-methoxyphenyl)quinazolin-4-yl)oxy)-7,9-dimethyl-5,16-dioxo-1,2,3,5,6,7,8,9,10,11,13a,14,14a,15,16,16a-hexadecahydrocyclopropa[e]pyrrolo[1,2-a][1,4]diazacyclopentadecin-6-yl)carbamate]	> 8.26	> 8.26	–
CC[C@@H]1C[C@H](C)CC/C=C\[C@@H]2C[C@@]2(C(=O)NS(=O)(=O)C2(C)CC2)NC(=O)[C@@H]2C[C@@H](Oc3nccc4c5c(ccc34)N(C)CCO5)CN2C(=O)[C@H]1NC(=O)OC(C)(C)C(F)(F)F [Compound 5326, 1,1,1-trifluoro-2-methylpropan-2-yl((2R,6S,7R,9R,13aS,14aR,16aS,Z)-7-ethyl-9-methyl-2-((4-methyl-3,4-dihydro-2H-[1,4]oxazino[2,3-f]isoquinolin-7-yl)oxy)-14a-(((1-methylcyclopropyl)sulfonyl)carbamoyl)-5,16-dioxo-1,2,3,5,6,7,8,9,10,11,13a,14,14a,15,16,16a-hexadecahydrocyclopropa[e]pyrrolo[1,2-a][1,4]diazacyclopentadecin-6-yl)carbamate]	> 8.26	> 8.26	–
COc1ccc2c(O[C@@H]3C[C@H]4C(=O)N[C@]5(C(=O)NS(=O)(=O)C6(F)CC6)C[C@H]5/C=C\CC[C@@H](C)C[C@@H](C)[C@H](NC(=O)OC5C[C@@H]6C[C@@H]6C5)C(=O)N4C3)nccc2c1 (some centres unmarked) [Compound 4038]	> 8.26	> 8.26	–
CC[C@@H]1C[C@@H](C)CC/C=C\[C@@H]2C[C@@]2(C(=O)NS(=O)(=O)C2(CO)CC2)NC(=O)[C@@H]2C[C@@H](Oc3nccc4cc(OC)c(F)cc34)CN2C(=O)[C@H]1NC(=O)OC(C)(C)C(F)(F)F [Compound 4326]	–	–	pEC50 ([1]; GETYPE1A, HCV genotype 1a replicon luciferase): 6.21 to 7.46; pEC50 ([2]; GETYPE1B, HCV genotype 1b replicon luciferase): 6.21 to 7.46
CC[C@@H]1C[C@H](C)CC/C=C\[C@@H]2C[C@@]2(C(=O)NS(=O)(=O)C2(CF)CC2)NC(=O)[C@@H]2C[C@@H](Oc3nccc4c5c(ccc34)N(C)CCO5)CN2C(=O)[C@H]1NC(=O)OC(C)(C)C(C)(F)F [Compound 5463, 3,3-difluoro-2-methylbutan-2-yl((2R,6S,7R,9R,13aS,14aR,16aS,Z)-7-ethyl-14a-(((1-(fluoromethyl)cyclopropyl)sulfonyl)carbamoyl)-9-methyl-2-((4-methyl-3,4-dihydro-2H-[1,4]oxazino[2,3-f]isoquinolin-7-yl)oxy)-5,16-dioxo-1,2,3,5,6,7,8,9,10,11,13a,14,14a,15,16,16a-hexadecahydrocyclopropa[e]pyrrolo[1,2-a][1,4]diazacyclopentadecin-6-yl)carbamate]	7.46 to 8.30	7.46 to 8.30	–
COc1ccc2c(O[C@@H]3C[C@H]4C(=O)N[C@]5(C(=O)NS(=O)(=O)C6(C)CC6)C[C@H]5/C=C\CC[C@@H](C)C[C@@H](C)[C@H](NC(=O)OC(C)(C)C(C)(F)F)C(=O)N4C3)nc(-c3ccc4c(c3)OCCO4)cc2c1 [Compound 5237, 3,3-difluoro-2-methylbutan-2-yl((2R,6S,7R,9R,13aS,14aR,16aS,Z)-2-((3-(2,3-dihydrobenzo[b][1,4]dioxin-6-yl)-6-methoxyisoquinolin-1-yl)oxy)-7,9-dimethyl-14a-(((1-methylcyclopropyl)sulfonyl)carbamoyl)-5,16-dioxo-1,2,3,5,6,7,8,9,10,11,13a,14,14a,15,16,16a-hexadecahydrocyclopropa[e]pyrrolo[1,2-a][1,4]diazacyclopentadecin-6-yl)carbamate]	> 8.26	> 8.26	–
CC[C@@H]1C[C@H](C)CC/C=C\[C@@H]2C[C@@]2(C(=O)NS(=O)(=O)C2(C)CC2)NC(=O)[C@@H]2C[C@@H](Oc3nc(OC)cc4ccccc34)CN2C(=O)[C@H]1NC(=O)OC(C)(C)C(F)(F)F [Compound 6007, 1,1,1-trifluoro-2-methylpropan-2-yl((2R,6S,7R,9R,13aS,14aR,16aS,Z)-7-ethyl-2-((3-methoxyisoquinolin-1-yl)oxy)-9-methyl-14a-(((1-methylcyclopropyl)sulfonyl)carbamoyl)-5,16-dioxo-1,2,3,5,6,7,8,9,10,11,13a,14,14a,15,16,16a-hexadecahydrocyclopropa[e]pyrrolo[1,2-a][1,4]diazacyclopentadecin-6-yl)carbamate]	> 8.26	> 8.26	–
